{
  "source": "paper PMC11124362",
  "about": "“Metabolism, Disposition, Excretion, and Potential Transporter Inhibition of 7–16, an Improving 5-HT2A Receptor Antagonist and Inverse Agonist for Parkinson’s Disease” (Molecules, 2024)",
  "key": {"[1]": {"system": "CYP3A4", "set-up": "method as in PMID 35279606", "conditions": "previous study; read-out: CYP3A4 inhibition IC50; cited from earlier work"}, "[2]": {"experiment": "Metabolite identification in rat liver microsomes", "assay_type": "in vitro ADME", "conditions": "7–16 10 µM, liver microsomes 1 mg/mL, NADPH, 37 °C, 60 min", "description": "In accordance with our previous methods, 7–16 (10 µM) was incubated with mouse, rat, dog, monkey, and human liver microsome proteins (1 mg/mL) in 100 mM sodium phosphate buffer (pH 7.4) containing 10 mM magnesium chloride and 2 mM NADPH at 37 °C for 60 min. All samples were prepared in duplicates. The reactions were terminated by adding three times the volume of ice-cold acetonitrile (600 µL) and stored at −20 °C until analysis. Control samples without NADPH and 0-time point samples were included. As a positive control, testosterone (10 µM), which was metabolized to produce the hydroxylation metabolite, was used as a substrate to confirm the activity of the incubation system.\nAfter pre-treatments, the samples were analyzed by an Acquity UPLC system coupled with a diode array detector (Waters Corporation, Milford, MA, USA) and Q Exactive HRMS (Thermo Electron Corporation, Waltham, MA, USA) (UPLC–UV-Q Exactive HRMS). Samples were separated on an Agilent XDB C18 column (150 × 2.1 mm i.d. 3.5 μm, Agilent Corporation, Santa Clara, CA, USA) at 40 °C by gradient elution with water and acetonitrile containing 0.1% formic acid. The flow rate was 0.40 mL/min. The ultraviolet (UV) detection wavelength was 286 nm. Q Exactive HRMS were operated at positive ion mode (3.5 kV) using a heating electrospray ionization source. Mass calibration was required to be performed before conducting experiments so as to achieve the best mass accuracy and mass calibration should be performed every five days. The metabolites were detected by full MS/dd-MS^2 analysis from m/z 100 to m/z 1000. The resolution of the first-class scan and second-class scan was 70,000 and 17,500, respectively. Thermo Compound Discover software was used to identify expected and unknown metabolites, and we finally proposed the 7–16 metabolic pathways based on the deduced metabolites and relevant drug biotransformation knowledge."}, "[3]": {"molecular_target": "T1, P-gp (Homo sapiens, UniProt P08183)", "T1 construct": "expressed in transfected cells; host or cells: MDR1-MDCKII (Madin-Darby canine kidney cells)", "T1 sequence (P08183 whole entry)": "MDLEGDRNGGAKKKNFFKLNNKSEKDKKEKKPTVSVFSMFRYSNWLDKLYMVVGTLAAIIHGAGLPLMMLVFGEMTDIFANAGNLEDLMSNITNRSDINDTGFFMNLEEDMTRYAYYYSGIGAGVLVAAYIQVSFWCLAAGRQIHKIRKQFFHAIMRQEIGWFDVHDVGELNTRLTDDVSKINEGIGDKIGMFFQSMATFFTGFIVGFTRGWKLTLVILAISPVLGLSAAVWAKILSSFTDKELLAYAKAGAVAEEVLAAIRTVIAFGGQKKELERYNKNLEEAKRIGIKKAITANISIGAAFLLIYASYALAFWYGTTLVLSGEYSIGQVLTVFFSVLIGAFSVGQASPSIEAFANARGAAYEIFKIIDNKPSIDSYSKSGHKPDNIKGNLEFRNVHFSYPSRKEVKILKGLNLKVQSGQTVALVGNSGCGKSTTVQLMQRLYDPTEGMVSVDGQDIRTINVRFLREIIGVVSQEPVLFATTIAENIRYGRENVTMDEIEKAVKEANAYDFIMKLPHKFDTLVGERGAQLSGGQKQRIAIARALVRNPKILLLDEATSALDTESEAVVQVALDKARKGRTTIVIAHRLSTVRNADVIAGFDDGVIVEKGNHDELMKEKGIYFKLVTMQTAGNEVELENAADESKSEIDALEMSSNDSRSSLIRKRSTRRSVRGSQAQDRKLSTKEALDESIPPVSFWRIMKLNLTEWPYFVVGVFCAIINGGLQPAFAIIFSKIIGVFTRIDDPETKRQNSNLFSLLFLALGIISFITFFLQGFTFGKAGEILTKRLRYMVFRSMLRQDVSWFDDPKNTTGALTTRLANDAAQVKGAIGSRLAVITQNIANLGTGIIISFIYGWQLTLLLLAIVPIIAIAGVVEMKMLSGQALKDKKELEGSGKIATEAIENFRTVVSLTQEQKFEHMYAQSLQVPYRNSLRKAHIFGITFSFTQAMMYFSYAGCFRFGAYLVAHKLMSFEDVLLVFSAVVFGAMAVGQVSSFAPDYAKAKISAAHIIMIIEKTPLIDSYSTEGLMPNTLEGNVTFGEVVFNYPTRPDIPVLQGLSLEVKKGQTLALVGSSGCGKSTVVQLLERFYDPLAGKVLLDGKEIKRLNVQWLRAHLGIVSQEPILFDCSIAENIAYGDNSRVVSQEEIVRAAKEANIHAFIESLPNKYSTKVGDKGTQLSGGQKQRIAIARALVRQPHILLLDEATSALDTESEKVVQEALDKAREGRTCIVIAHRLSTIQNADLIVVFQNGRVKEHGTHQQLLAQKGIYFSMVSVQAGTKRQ", "experiment": "P-gp inhibitor assay in MDR1-MDCKII cells", "assay_type": "in vitro ADME", "conditions": "substrate Digoxin 10.0 µM, efflux ratio, read-out: Inhibition IC50, P-gp"}, "[4]": {"system": "hERG", "set-up": "method as in PMID 35279606", "conditions": "versus pimavanserin; cited from earlier work"}, "[5]": {"molecular_target": "T2, OAT1 (Homo sapiens, UniProt Q4U2R8)", "T2 construct": "host or cells: HEK293", "T2 sequence (Q4U2R8 1-563)": "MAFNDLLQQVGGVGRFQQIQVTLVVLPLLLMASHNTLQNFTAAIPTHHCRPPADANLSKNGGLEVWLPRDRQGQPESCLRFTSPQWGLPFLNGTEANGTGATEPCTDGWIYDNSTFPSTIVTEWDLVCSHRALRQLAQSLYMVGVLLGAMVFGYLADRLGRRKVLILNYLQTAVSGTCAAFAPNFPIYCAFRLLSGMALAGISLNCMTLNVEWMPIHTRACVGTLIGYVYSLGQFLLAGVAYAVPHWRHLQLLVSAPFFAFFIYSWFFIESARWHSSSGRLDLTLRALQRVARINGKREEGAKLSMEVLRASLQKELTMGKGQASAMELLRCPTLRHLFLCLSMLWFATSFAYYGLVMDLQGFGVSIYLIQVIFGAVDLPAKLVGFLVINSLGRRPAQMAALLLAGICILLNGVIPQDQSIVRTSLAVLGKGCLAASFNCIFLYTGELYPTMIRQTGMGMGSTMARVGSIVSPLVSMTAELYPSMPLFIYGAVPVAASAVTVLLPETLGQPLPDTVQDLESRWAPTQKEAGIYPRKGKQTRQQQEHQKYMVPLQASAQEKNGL", "experiment": "OAT1 inhibitor assay in HEK293 cells", "assay_type": "in vitro ADME", "conditions": "substrate p-Aminohippurate, read-out: Inhibition IC50, OAT1"}, "[6]": {"system": "CYP2B6", "experiment": "Metabolic phenotype by rhCYP isozymes, CYP2B6", "assay_type": "in vitro ADME, human", "conditions": "7–16 1 µM", "description": "Based on the result of metabolite identification, two metabolites were selected as targets for metabolic phenotyping analysis. Seven CYP isozymes (CYP1A2, CYP2B6, CYP2C8, CYP2C9, CYP2C19, CYP2D6, and CYP3A4) were investigated using the rhCYP isozymes method. In brief, 7–16 (1 µΜ) was incubated with each rhCYP isozyme ([…]) in 100 mM sodium phosphate buffer (pH 7.4) containing 3 mM magnesium chloride. After 10 min of preincubation at 37 °C, the reactions were initiated by adding NADPH (1 mM) and then incubated at 37 °C in a shaking water bath for 0, 5, 15, and 30 min. The specific substrates of each rhCYP isozyme were incubated as the above method to confirm the activity of the incubation system. The samples were prepared in triplicates. The reactions were terminated by adding three times the volume of ice-cold acetonitrile (600 µL) and stored at −20 °C until analysis. After pre-treatment, the samples were determined by the LC–MS/MS (Shimadzu Exion-Triple Quad 4500) method. The relative contribution rate of each isozyme to the metabolism of 7–16 was evaluated in HLMs using the following formula: Contributionx% = Vx × Abundancex (pmol/mg protein)/Σ(Vi × Abundancei). Vx (µL/min/pmol) is the production rate of metabolites for each rhCYP isozyme."}},
  "data": [
    {"smiles": "CN1CCC(N(Cc2ccc(F)cn2)C(=O)NCc2ccc(OCC(F)(F)F)cc2)CC1", "note": "[7–16, 3-(4-(2,2,2-trifluoroethoxy)benzyl)-1-((5-fluoropyridin-2-yl)methyl)-1-(1-methylpiperidin-4-yl) urea]", "values": [
      {"measurement": "IC50", "setting": "[1]", "result": "> 62.9", "unit": "µM"},
      {"measurement": "Relative Abundance, UV Area% Rat", "setting": "[2]", "result": 86.1, "unit": "%"},
      {"measurement": "IC50", "setting": "[3]", "result": 30.6, "unit": "µM"},
      {"measurement": "fold weaker hERG inhibitory activity than pimavanserin", "setting": "[4]", "result": 2, "unit": "fold"},
      {"measurement": "IC50", "setting": "[5]", "result": "> 100", "unit": "µM"},
      {"measurement": "relative contribution of CYP2B6 to metabolism", "setting": "[6]", "result": "little or no contribution"}
    ]}
  ]
}
